# Reference: PMC3499409, “Direct Interaction between EgFABP1, a Fatty Acid Binding Protein from Echinococcus granulosus, and Phospholipid Membranes” (PLoS Neglected Tropical Diseases, 2012)
# Tests used:
# Format in all cases: binding
# [1] = target: T1, EgFABP1 (Echinococcus granulosus, UniProt Q02970); assay: fluorescence titration of the anthroyloxy fatty acid with protein
# T1 construct: gene FABP1; recombinant EgFABP1 from pET11b in E. coli, delipidated
# [2] = target: T2, EgFABP1 (Echinococcus granulosus, UniProt Q02970); assay: protection from limited proteolysis (clostripain); GC of co-purified fatty acids
# T2 construct: gene FABP1; recombinant EgFABP1 from pET11b in E. coli
# T2 sequence (Q02970 1-133): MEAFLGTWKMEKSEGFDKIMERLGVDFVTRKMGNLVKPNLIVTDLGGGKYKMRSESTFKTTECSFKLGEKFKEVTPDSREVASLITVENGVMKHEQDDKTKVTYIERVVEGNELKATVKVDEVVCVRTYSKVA
# [3] = target: T2, EgFABP1; assay: near-UV CD change; protection from limited proteolysis (clostripain); GC of co-purified fatty acids
smiles,measurement,setting,value
"CCCCCCC(CCCCCCCCCCC(=O)O)OC(=O)c1c2ccccc2cc2ccccc12 (stereo not shown) [12AS, 12-(9-anthroyloxy)stearic acid]",Kd,[1],0.12 ± 0.02 µM
"O=C(O)CCCCCCCCCCCCCCCOC(=O)c1c2ccccc2cc2ccccc12 [16AP, 16-(9-anthroyloxy)palmitic acid]",Kd,[1],0.013 ± 0.006 µM
CCCCCCCCCCCCCC(=O)O [myristic acid],protection from limited proteolysis (clostripain); GC of co-purified fatty acids,[2],Results show that binding of FAs gives EgFABP1 significant relative protection against cleavage
CCCCCCCC/C=C\CCCCCCCC(=O)O [oleic acid],near-UV CD change; protection from limited proteolysis (clostripain); GC of co-p,[3],"the near-UV CD spectra (Figure S1) showed differences upon ligand binding, especially with oleic acid"
